In US6841368B1, “Enzymatic production of difructose dianhydride IV from sucrose and relevant enzymes and genes coding for them” (priority 1999, dated 2005):
Where two headings read alike, the source gives them in different places.

Key:
[1] = test system: levan fructotransferase from A. ureafaciens K2032; assay: Effect of additives on the activity of levan fructotransferase; assay type: biochemical
Experimental: (§1) The purified enzyme was 51,000 in molecular weight as measured by SDS-PAGE while being measured to have a molecular weight of 96,000 by gel filtration chromatography. Thus, it was identified as being a dimer in aqueous conditions. […] Also, it was of optimal activity at 55° C. […] Whereas being inhibited by Mn^2+, Fe^2+ and Hg^2+, the activity of the enzyme was enhanced by […] and Ca^2+.

[2] = assay type: biochemical, A. ureafaciens K2032
Experimental: A. ureafaciens K2032 was inoculated in a selective broth containing levan as a major carbon source and cultured at 30° C. for 72 hours in an incubator. Investigation into the growth and levan fructotransferase activity of the bacteria provided the knowledge that the largest enzyme activity is obtained after 10 hours of the incubation. From the culture incubated for 10 hours, the enzyme was purified (FIG. 5). In this regard, the purification was achieved by successively using acetone precipitation, ion exchange chromatography (DEAE 650-M and Mono Q), and gel filtration chromatography, resulting in producing levan fructotransferase with a specific activity of 2269 U/mg protein at an amount of 1.1 mg at a yield of 29.8% (Table 8).
as §1
The newly isolated levan fructotransferase structural gene is composed of 1566 bp which corresponds to 521 aa. The gene of the present invention has a signal sequence consisting of 99 bp (corresponding to 33 aa) at its N-terminus and therefore, the putative completed protein may be about 56 kDa in molecular weight. […] This levan fructotransferase gene is longer by 15 bases (5 amino acids) than is the levan fructotransferase gene derived from A. nicotinovorans GS-9. These two genes are 81% in the homology of amino acid sequence (76% in the homology of base sequence). Consequently, the levan fructotransferase gene of A. ureafaciens K2032 was identified as being new and its base sequence was registered in the GenBank, U.S.A. (Accession No. AF181254).

[3] = additive concentration 1 mM, control = 100
[4] = additive concentration 10 mM, control = 100

## [Cl][Mn][Cl] [MnCl2]
[1]; [3]
  Relative activity: 9%
[1]; metal ions
  Effect on the activity of the enzyme (in words): inhibited

## CCCCCCCCCCCCOS(=O)(=O)[O-].[Na+] [SDS, sodium dodecylsulfate, reference compound]
[1]; [3]
  Relative activity: 101%
[1]; [4]
  Relative activity: 32%

## [Cl-].[K+] [KCl]
[1]; [3]
  Relative activity: 89%

## [Cl][Hg][Cl] [HgCl2]
[1]; [3]
  Relative activity: 0%
[1]; metal ions
  Effect on the activity of the enzyme (in words): inhibited

## [Ca+2].[Cl-].[Cl-] [CaCl2]
[1]; [3]
  Relative activity: 156%
[1]; [4]
  Relative activity: 181%
[1]; metal ions
  Effect on the activity of the enzyme (in words): enhanced

## [Cl-].[Cl-].[Zn+2] [ZnCl2]
[1]; [3]
  Relative activity: 23%

## [Cl-].[Cl-].[Mg+2] [MgCl2]
[1]; [3]
  Relative activity: 63%

## [Cl-].[Li+] [LiCl]
[1]; [3]
  Relative activity: 92%

## Cl.N [NH4Cl]
[1]; [3]
  Relative activity: 46%

## [Cl][Ni][Cl] [NiCl]
[1]; [3]
  Relative activity: 74%

## [Cl][Fe][Cl] [FeCl2]
[1]; [3]
  Relative activity: 4%
[1]; metal ions
  Effect on the activity of the enzyme (in words): inhibited

## [Cl-].[Na+] [NaCl]
[1]
  Effect on the activity of the enzyme (in words): enhanced
  Relative activity: 125, 142%

## O=C(O)CN(CCN(CC(=O)O)CC(=O)O)CC(=O)O [EDTA, reference compound]
[1]; [3]
  Relative activity: 95%
[1]; [4]
  Relative activity: 94%

B1: levan fructotransferase: enzyme purified from A. ureafaciens K2032 that produces DFA IV from levan; SEQ ID NO: 1 (protein)
chain: MTPAISRRAVLQGAGAGALALIFGGAVPPAARASAPGSLRAVYHMTPPSGWLCDPQRPVTTHGAYQLYYLHSDQNNGPGGWDHASTTDGVAFTHHGTVMPLRPDFPVWSGSAVVGTANTAGFGAGAVVALATQPTDGVRKYQEQYLYWSTDGGFTFTALPDPVIVNTDGRAATTPAEIENAEWFRDPKIHWDTARGEWVCVIGRLRYAAFYTSPNLRDWTLRRNFDYPNHALGGIECPDLFEITADDGTRHWVLAASMDAYGIGLPMTYAYWTGTWDGEQFHADDLTPQWLDWGWDWYAAVTWPSIDAPETKRLAIAWMNNWKYAARDVPTDASDGYNGQNSIVRELRLARQPGGWYTLLSTPVAALTNYVTATTTLPDRTVDGSAVLPWNGRAYEIELDIAWDTATNVGISVGRSPDGTRHTNIGKYGADLYVDRGPSDLAGYSLAPYSRAAAPIDPGARSVHLRILVDTQSVEVFVNAGHTVLSQQVHFAEGDTGISLYTDGGPAHFTGIVVREIGQAI
modifications: Arthrobacter ureafaciens K2032
[2]
  pH range in which the enzyme maintains its stability: 4-10.5
[2]; after acetone precipitation, ion exchange and gel filtration chromatography
  Specific activity: 2269 U/mg protein
[2]; after standing at 50° C. for 30 min
  Remnant activity: ≥ 90%
[2]; levan fructotransferase encoded by lftA
  Isoelectric point: 5.15 pH
